The structures appear in SMILES notation. Bridge positions count the residues as written; N and C are the ends. Square brackets hold non-standard residues; d marks the D form. Peptide text beside a SMILES is read from it. * marks the point of attachment. ξ: configuration not given here. Trp(1-CH2COOH) = N[C@@H](Cc1cn(CC(=O)O)c2ccccc12)C(=O)O; Hyp = O=C(O)[C@@H]1C[C@@H](O)CN1; Piperazinyl(4-Me) = CN1CCN(*)CC1; ξW = NC(Cc1c[nH]c2ccccc12)C(=O)O; NH(3-picolyl) = c1cncc(CN*)c1; NMeNle = CCCC[C@H](NC)C(=O)O; Morpholide = C1CN(*)CCO1; NMeA = CN[C@@H](C)C(=O)O; Piperidide = C1CCN(*)CC1; Pyrrolidide = C1CCN(*)C1; Dab = NCC[C@H](N)C(=O)O; X4 = [N-]=[N+]=NCCCCCN*; Dap = NC[C@H](N)C(=O)O; NHBn = c1ccc(CN*)cc1; NHCH2CH2OMe = COCCN*; N(Me)nPr = CCCN(C)*; NHcBu = C1CC(N*)C1; NHcPr = C1CC1N*; Sar = CNCC(=O)O

In the test the target is T1, PD-1-Ig binding to PD-L1-TVMV-His (PD-L1-His) (Homo sapiens, UniProt Q9NZQ7).
T1 construct: hPDL1(19-239)-TVMV-His; TVMV protease cleavage site (C); made in house; host or cells: HEK293T
T1 sequence (Q9NZQ7 with tags, fused parts or gaps): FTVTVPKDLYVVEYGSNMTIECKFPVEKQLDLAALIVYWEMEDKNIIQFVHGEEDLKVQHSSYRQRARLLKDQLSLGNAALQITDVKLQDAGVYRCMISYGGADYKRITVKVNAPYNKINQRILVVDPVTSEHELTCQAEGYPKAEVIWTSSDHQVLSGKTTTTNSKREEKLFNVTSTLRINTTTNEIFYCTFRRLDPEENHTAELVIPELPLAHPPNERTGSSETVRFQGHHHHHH
Put plainly: PD-1/PD-L1 Homogenous Time-Resolved Fluorescence (HTRF) binding assay. To be noted: PD-1-Ig (20 nM)/PD-L1-His (10 nM), range classes. An excerpt: Methods for Testing the Ability of Macrocyclic Peptides to Compete for the Binding of PD-1 to PD-L1 Using Homogenous Time-Resolved Fluorescence (HTRF) Binding Assays
The ability of the macrocyclic peptides of the present disclosure to bind to PD-L1 was investigated using a PD-1/PD-L1 Homogenous Time-Resolved Fluorescence (HTRF) binding assay.
Homogenous Time-Resolved Fluorescence (HTRF) Assays of Binding of Soluble PD-1 to Soluble PD-L1. Soluble PD-1 and soluble PD-L1 refers to proteins with carboxyl-end truncations that remove the transmembrane-spanning regions and are fused to heterologous sequences, specifically the Fc portion of the human immunoglobuling G sequence (Ig) or the hexahistidine epitope tag (His). All binding studies were performed in an HTRF assay buffer consisting of dPBS supplemented with 0.1% (w/v) bovine serum albumin and 0.05% (v/v) Tween-20. For the PD-1-Ig/PD-L1-His binding assay, inhibitors were pre-incubated with PD-L1-His (10 nM final) for 15 m in 4 μl of assay buffer, followed by addition of PD-1-Ig (20 nM final) in 1 μl of assay buffer and further incubation for 15 m. PD-L1 fusion proteins from either human, cynomologous macaques, mouse, or other species were used. HTRF detection was achieved using europium crypate-labeled anti-Ig monoclonal antibody (1 nM final) and allophycocyanin (APC) labeled anti-His monoclonal antibody (20 nM final). Antibodies were diluted in HTRF detection buffer and 5 μl was dispensed on top of binding reaction. The reaction was allowed to equilibrate for 30 minutes and signal (665 nm/620 nm ratio) was obtained using an EnVision fluorometer. Additional binding assays were established between PD-1-Ig/PD-L2-His (20 and 5 nM, respectively), CD80-His/PD-L1-Ig (100 and 10 nM, respectively) and CD80-His/CTLA4-Ig (10 and 5 nM, respectively). Binding/competition studies between biotinylated Compound No. 71 and human PD-L1-His were performed as follows. Macrocyclic peptide inhibitors were pre-incubated with PD-L1-His (10 nM final) for 60 minutes in 4 μl of assay buffer followed by addition of biotinylated Compound No. 71 (0.5 nM final) in 1 μl of assay buffer. Binding was allowed to equilibrate for 30 minutes followed by addition of europium crypated labeled Streptavidin (2.5 pM final) and APC-labeled anti-His (20 nM final) in 5 μl of HTRF buffer. The reaction was allowed to equilibrate for 30 m and signal (665 nm/620 nm ratio) was obtained using an EnVision fluorometer.
Recombinant Proteins. Carboxyl-truncated human PD-1 (amino acids 25-167) with a C-terminal human Ig epitope tag [hPD-1 (25-167)-3S-IG] and human PD-L1 (amino acids 18-239) with a C-terminal His epitope tag [hPD-L1(19-239)-tobacco vein mottling virus protease cleavage site (TVMV)-His] were expressed in HEK293T cells and purified sequentially by recombinant Protein A affinity chromatography and size exclusion chromatography. Human PD-L2-His (Sino Biologicals), CD80-His (Sino Biologicals), CTLA4-Ig (RnD Systems) were all obtained through commercial sources.
On the technique in general: In TR-FRET formats the signal depends on donor and acceptor labels being close together.
`CCCC[C@H]1C(=O)N(C)[C@@H](CCCC)C(=O)N[C@@H](CC(C)C)C(=O)N[C@H](C(=O)NCC(=O)NCc2ccccc2)CSCC(=O)N[C@@H](Cc2ccc(O)cc2)C(=O)N(C)[C@@H](C)C(=O)N[C@@H](CC(N)=O)C(=O)N2CCC[C@H]2C(=O)N[C@@H](CN)C(=O)N[C@@H](CC(C)C)C(=O)N2C[C@H](O)C[C@H]2C(=O)N[C@@H](Cc2c[nH]c3ccccc23)C(=O)N[C@@H](CCN)C(=O)N[C@@H](Cc2cn(CC(=O)O)c3ccccc23)C(=O)N1C` [Example 13080] ({CH2CO}-Y[NMeA]NP[Dap]L[Hyp]W[Dab][Trp(1-CH2COOH)][NMeNle][NMeNle]LCG-NHBn; thioether N-14) displayed a 50% inhibitory concentration (IC50) of 4 to 9.9 nM.

The compound `CCCC[C@H]1C(=O)N(C)[C@@H](CCCC)C(=O)N[C@@H](CC(C)C)C(=O)N[C@H](C(=O)NCC(=O)NCCCCCN=[N+]=[N-])CSCC(=O)N[C@@H](Cc2ccc(O)cc2)C(=O)N(C)[C@@H](C)C(=O)N[C@@H](CC(N)=O)C(=O)N2CCC[C@H]2C(=O)N[C@@H](CO)C(=O)N[C@@H](CCC(N)=O)C(=O)N2C[C@H](O)C[C@H]2C(=O)N[C@@H](Cc2c[nH]c3ccccc23)C(=O)N[C@@H](CO)C(=O)N[C@@H](Cc2c[nH]c3ccccc23)C(=O)N1C` [Example 13081] ({CH2CO}-Y[NMeA]NPSQ[Hyp]WSW[NMeNle][NMeNle]LCG-X4; thioether N-14) gave a concentration for half-maximal inhibition (IC50) of 10 to 60 nM.

As to `CCCC[C@H]1C(=O)N(C)[C@@H](CCCC)C(=O)N[C@@H](CC(C)C)C(=O)N[C@H](C(=O)NCC(=O)NCCOC)CSCC(=O)N[C@@H](Cc2ccc(O)cc2)C(=O)N(C)[C@@H](C)C(=O)N[C@@H](CC(N)=O)C(=O)N2CCC[C@H]2C(=O)N[C@@H](CN)C(=O)N[C@@H](CC(C)C)C(=O)N2C[C@H](O)C[C@H]2C(=O)N[C@@H](Cc2c[nH]c3ccccc23)C(=O)NCC(=O)N[C@@H](Cc2c[nH]c3ccccc23)C(=O)N1C` [Example 13082] ({CH2CO}-Y[NMeA]NP[Dap]L[Hyp]WGW[NMeNle][NMeNle]LCG-NHCH2CH2OMe; thioether N-14), the IC50 was 10 to 60 nM.

As for `CCCC[C@H]1C(=O)N(C)[C@@H](CCCC)C(=O)N[C@@H](CC(C)C)C(=O)N[C@H](C(=O)NCC(=O)N(C)CCC)CSCC(=O)N[C@@H](Cc2ccc(O)cc2)C(=O)N(C)[C@@H](C)C(=O)N[C@@H](CC(N)=O)C(=O)N2CCC[C@H]2C(=O)N[C@@H](CN)C(=O)N[C@@H](CC(C)C)C(=O)N2C[C@H](O)C[C@H]2C(=O)N[C@@H](Cc2c[nH]c3ccccc23)C(=O)NCC(=O)N[C@@H](Cc2c[nH]c3ccccc23)C(=O)N1C` [Example 13084] ({CH2CO}-Y[NMeA]NP[Dap]L[Hyp]WGW[NMeNle][NMeNle]LCG-{N(Me)nPr}; thioether N-14), the IC50 is 10 to 60 nM.

`CCCC[C@H]1C(=O)N(C)[C@@H](CCCC)C(=O)N[C@@H](CC(C)C)C(=O)N[C@H](C(=O)NCC(=O)N2CCCC2)CSCC(=O)N[C@@H](Cc2ccc(O)cc2)C(=O)N(C)[C@@H](C)C(=O)N[C@@H](CC(N)=O)C(=O)N2CCC[C@H]2C(=O)N[C@@H](CN)C(=O)N[C@@H](CC(C)C)C(=O)N2C[C@H](O)C[C@H]2C(=O)N[C@@H](Cc2c[nH]c3ccccc23)C(=O)NCC(=O)N[C@@H](Cc2c[nH]c3ccccc23)C(=O)N1C` [Example 13085] ({CH2CO}-Y[NMeA]NP[Dap]L[Hyp]WGW[NMeNle][NMeNle]LCG-Pyrrolidide; thioether N-14) registered an IC50 of 10 to 60 nM.

`CCCC[C@H]1C(=O)N(C)[C@@H](CCCC)C(=O)N[C@@H](CC(C)C)C(=O)N[C@H](C(=O)NCC(=O)N2CCCCC2)CSCC(=O)N[C@@H](Cc2ccc(O)cc2)C(=O)N(C)[C@@H](C)C(=O)N[C@@H](CC(N)=O)C(=O)N2CCC[C@H]2C(=O)N[C@@H](CN)C(=O)N[C@@H](CC(C)C)C(=O)N2C[C@H](O)C[C@H]2C(=O)N[C@@H](Cc2c[nH]c3ccccc23)C(=O)NCC(=O)N[C@@H](Cc2c[nH]c3ccccc23)C(=O)N1C` [Example 13086] ({CH2CO}-Y[NMeA]NP[Dap]L[Hyp]WGW[NMeNle][NMeNle]LCG-Piperidide; thioether N-14) displayed an IC50 of 4 to 9.9 nM.

In turn, `CCCC[C@H]1C(=O)N(C)[C@@H](CCCC)C(=O)N[C@@H](CC(C)C)C(=O)N[C@H](C(=O)NCC(=O)N2CCOCC2)CSCC(=O)N[C@@H](Cc2ccc(O)cc2)C(=O)N(C)[C@@H](C)C(=O)N[C@@H](CC(N)=O)C(=O)N2CCC[C@H]2C(=O)N[C@@H](CN)C(=O)N[C@@H](CC(C)C)C(=O)N2C[C@H](O)C[C@H]2C(=O)N[C@@H](Cc2c[nH]c3ccccc23)C(=O)NCC(=O)N[C@@H](Cc2c[nH]c3ccccc23)C(=O)N1C` [Example 13087] ({CH2CO}-Y[NMeA]NP[Dap]L[Hyp]WGW[NMeNle][NMeNle]LCG-Morpholide; thioether N-14) had an IC50 of 10 to 60 nM.

For `CCCC[C@H]1C(=O)N(C)[C@@H](CCCC)C(=O)N[C@@H](CC(C)C)C(=O)N[C@H](C(=O)NCC(=O)N2CCN(C)CC2)CSCC(=O)N[C@@H](Cc2ccc(O)cc2)C(=O)N(C)[C@@H](C)C(=O)N[C@@H](CC(N)=O)C(=O)N2CCC[C@H]2C(=O)N[C@@H](CN)C(=O)N[C@@H](CC(C)C)C(=O)N2C[C@H](O)C[C@H]2C(=O)N[C@@H](Cc2c[nH]c3ccccc23)C(=O)NCC(=O)N[C@@H](Cc2c[nH]c3ccccc23)C(=O)N1C` [Example 13089] ({CH2CO}-Y[NMeA]NP[Dap]L[Hyp]WGW[NMeNle][NMeNle]LCG-{Piperazinyl(4-Me)}; thioether N-14), the IC50 is 10 to 60 nM.

Compound `CCCC[C@H]1C(=O)N(C)[C@@H](CCCC)C(=O)N[C@@H](CC(C)C)C(=O)N[C@H](C(=O)N(C)CC(N)=O)CSCC(=O)N[C@@H](Cc2ccc(O)cc2)C(=O)N(C)[C@@H](C)C(=O)N[C@@H](CC(N)=O)C(=O)N2CCC[C@H]2C(=O)N[C@@H](CN)C(=O)N[C@@H](CC(C)C)C(=O)N2C[C@H](O)C[C@H]2C(=O)N[C@@H](Cc2c[nH]c3ccccc23)C(=O)NCC(=O)N[C@@H](Cc2c[nH]c3ccccc23)C(=O)N1C` [Example 13090] ({CH2CO}-Y[NMeA]NP[Dap]L[Hyp]WGW[NMeNle][NMeNle]LC[Sar]-NH2; thioether N-14) showed an IC50 of 4 to 9.9 nM.

In the case of `CCCC[C@H]1C(=O)N(C)[C@@H](CCCC)C(=O)N[C@@H](CC(C)C)C(=O)N[C@H](C(=O)NCC(=O)NC2CC2)CSCC(=O)N[C@@H](Cc2ccc(O)cc2)C(=O)N(C)[C@@H](C)C(=O)N[C@@H](CC(N)=O)C(=O)N2CCC[C@H]2C(=O)N[C@@H](CN)C(=O)N[C@@H](CC(C)C)C(=O)N2C[C@H](O)C[C@H]2C(=O)N[C@@H](Cc2c[nH]c3ccccc23)C(=O)NCC(=O)NC(Cc2c[nH]c3ccccc23)C(=O)N1C` (stereo partly drawn) [Example 13091] ({CH2CO}-Y[NMeA]NP[Dap]L[Hyp]WG[ξW][NMeNle][NMeNle]LCG-NHcPr; thioether N-14), the IC50 lay within 4 to 9.9 nM.

`CCCC[C@H]1C(=O)N(C)[C@@H](CCCC)C(=O)N[C@@H](CC(C)C)C(=O)N[C@H](C(=O)NCC(=O)NC2CCC2)CSCC(=O)N[C@@H](Cc2ccc(O)cc2)C(=O)N(C)[C@@H](C)C(=O)N[C@@H](CC(N)=O)C(=O)N2CCC[C@H]2C(=O)N[C@@H](CN)C(=O)N[C@@H](CC(C)C)C(=O)N2C[C@H](O)C[C@H]2C(=O)N[C@@H](Cc2c[nH]c3ccccc23)C(=O)NCC(=O)N[C@@H](Cc2c[nH]c3ccccc23)C(=O)N1C` [Example 13092] ({CH2CO}-Y[NMeA]NP[Dap]L[Hyp]WGW[NMeNle][NMeNle]LCG-NHcBu; thioether N-14) registered an IC50 of 10 to 60 nM.

As for `CCCC[C@H]1C(=O)N(C)[C@@H](CCCC)C(=O)N[C@@H](CC(C)C)C(=O)N[C@H](C(=O)NCC(=O)NCc2cccnc2)CSCC(=O)N[C@@H](Cc2ccc(O)cc2)C(=O)N(C)[C@@H](C)C(=O)N[C@@H](CC(N)=O)C(=O)N2CCC[C@H]2C(=O)N[C@@H](CN)C(=O)N[C@@H](CC(C)C)C(=O)N2C[C@H](O)C[C@H]2C(=O)N[C@@H](Cc2c[nH]c3ccccc23)C(=O)NCC(=O)NC(Cc2c[nH]c3ccccc23)C(=O)N1C` (stereo partly drawn) [Example 13094] ({CH2CO}-Y[NMeA]NP[Dap]L[Hyp]WG[ξW][NMeNle][NMeNle]LCG-{NH(3-picolyl)}; thioether N-14), the half-inhibitory concentration (IC50) lay in the range of 10 to 60 nM.

In general, IC50 refers to the concentration that gives 50% inhibition. High values mean a need for much substance, low ones inhibition by little substance.

For the origin of these results see patent US9809625B2, “Immunomodulators” (BRISTOL-MYERS SQUIBB COMPANY, priority 2015, dated 2017).
